Columns and labels:
HCV NS3 helicase (NS3h) [1] = biological target: T1, HCV NS3 helicase (NS3h) (Hepacivirus hominis (Hepatitis C virus), UniProt P29846); assay: HCV helicase unwinding assay, RNA substrate; assay type: biochemical
HCV NS3 helicase (NS3h) [2] = biological target: T1, HCV NS3 helicase (NS3h); assay: HCV helicase unwinding assay, DNA substrate; assay type: biochemical
JEV helicase = JEV helicase (Japanese encephalitis virus, UniProt P27395); assay: JEV helicase inhibition; assay type: biochemical
Sequence of JEV helicase (P27395 1505-2123): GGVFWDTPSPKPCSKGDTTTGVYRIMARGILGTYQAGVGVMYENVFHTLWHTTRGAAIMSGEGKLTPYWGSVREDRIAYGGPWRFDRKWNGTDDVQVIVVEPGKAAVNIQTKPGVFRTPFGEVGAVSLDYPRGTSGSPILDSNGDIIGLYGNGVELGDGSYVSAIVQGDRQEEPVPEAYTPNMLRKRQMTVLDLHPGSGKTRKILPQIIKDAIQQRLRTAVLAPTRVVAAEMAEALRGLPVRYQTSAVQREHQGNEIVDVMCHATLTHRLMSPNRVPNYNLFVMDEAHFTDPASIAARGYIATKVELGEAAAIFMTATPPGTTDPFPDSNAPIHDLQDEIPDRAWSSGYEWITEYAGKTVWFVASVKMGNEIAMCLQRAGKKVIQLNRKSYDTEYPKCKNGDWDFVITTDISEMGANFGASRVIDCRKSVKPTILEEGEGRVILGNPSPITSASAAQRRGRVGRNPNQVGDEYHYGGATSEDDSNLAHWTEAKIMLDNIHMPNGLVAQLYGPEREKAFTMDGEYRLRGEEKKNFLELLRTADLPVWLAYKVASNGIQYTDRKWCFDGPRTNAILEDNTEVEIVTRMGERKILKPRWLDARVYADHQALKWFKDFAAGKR

DENV helicase = DENV helicase (Dengue virus type 2, UniProt P29990); assay: DENV helicase inhibition; assay type: biochemical
Sequence of DENV helicase (P29990 1476-2093): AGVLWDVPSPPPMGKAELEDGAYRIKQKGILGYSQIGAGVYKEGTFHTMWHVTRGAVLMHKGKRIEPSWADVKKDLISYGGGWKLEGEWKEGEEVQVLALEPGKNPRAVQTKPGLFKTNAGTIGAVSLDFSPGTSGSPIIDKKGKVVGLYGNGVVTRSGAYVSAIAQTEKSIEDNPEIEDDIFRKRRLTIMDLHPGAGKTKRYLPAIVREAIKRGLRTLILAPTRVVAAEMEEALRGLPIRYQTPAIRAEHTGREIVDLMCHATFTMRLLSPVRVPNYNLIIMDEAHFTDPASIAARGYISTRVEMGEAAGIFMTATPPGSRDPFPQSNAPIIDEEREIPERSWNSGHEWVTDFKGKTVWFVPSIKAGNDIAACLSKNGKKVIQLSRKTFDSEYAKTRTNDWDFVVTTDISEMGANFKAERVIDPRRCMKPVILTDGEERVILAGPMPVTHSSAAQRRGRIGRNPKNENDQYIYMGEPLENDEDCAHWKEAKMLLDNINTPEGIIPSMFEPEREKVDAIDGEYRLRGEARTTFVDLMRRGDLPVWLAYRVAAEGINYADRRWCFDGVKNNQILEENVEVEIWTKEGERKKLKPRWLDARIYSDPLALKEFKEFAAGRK

[3] = system: EcoRI-digested pT7-7 plasmid; assay: Gel shift assay with plasmid; assay type: binding

T1 sequence (P29846 1192-1657): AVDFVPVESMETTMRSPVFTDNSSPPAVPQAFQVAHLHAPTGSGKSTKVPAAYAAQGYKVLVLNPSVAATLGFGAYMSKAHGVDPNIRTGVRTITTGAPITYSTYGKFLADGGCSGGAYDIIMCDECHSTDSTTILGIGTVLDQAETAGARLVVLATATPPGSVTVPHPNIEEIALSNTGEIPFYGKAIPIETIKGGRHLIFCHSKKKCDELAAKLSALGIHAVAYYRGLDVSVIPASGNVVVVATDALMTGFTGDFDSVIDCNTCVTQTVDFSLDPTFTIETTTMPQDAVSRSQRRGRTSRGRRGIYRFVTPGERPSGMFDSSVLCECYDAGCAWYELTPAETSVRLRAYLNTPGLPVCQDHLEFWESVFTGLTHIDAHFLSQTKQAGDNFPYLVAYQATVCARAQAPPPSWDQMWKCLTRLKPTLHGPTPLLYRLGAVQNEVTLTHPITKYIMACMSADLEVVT

| SMILES | IC50 (HCV NS3 helicase (NS3h) [1]) [µM] | IC50 (HCV NS3 helicase (NS3h) [2]) [µM] | JEV helicase inhibition, in words (JEV helicase) | DENV helicase inhibition, in words (DENV helicase) | Effect on gel mobility of plasmid [3] | HCV helicase inhibition, in words (HCV NS3 helicase (NS3h) [1]; RNA substrate) | HCV helicase inhibition, in words (HCV NS3 helicase (NS3h) [2]; DNA substrate) |
| --- | --- | --- | --- | --- | --- | --- | --- |
| COC(=O)c1cccc2oc(-c3ccccc3O)nc12 [Compound 1] | > 1800 | > 1800 |  |  |  |  |  |
| O=C(O)c1cccc2oc(-c3ccccc3O)nc12 [Compound 2] | > 1800 | > 1800 |  |  |  |  |  |
| CNC(=O)c1cccc2oc(-c3ccccc3O)nc12 [Compound 3] | > 1800 | > 1800 |  |  |  |  |  |
| COC(=O)c1cccc2oc(-c3ccc4c(OCc5ccccc5)cccc4c3O)nc12 [Compound 5] |  |  | no inhibition | no inhibition | do not affect |  |  |
| COC(=O)c1cccc2oc(-c3ccc4ccc(OCc5ccccc5)cc4c3O)nc12 [Compound 6] |  |  | no inhibition | no inhibition | do not affect |  |  |
| COC(=O)c1cccc2oc(-c3cccc4oc(-c5ccccc5O)nc34)nc12 [UK-1] | > 1200 |  |  |  |  | no inhibition | weak inhibition |

Reference: paper PMC6136245 (Bioorganic & medicinal chemistry letters, 2013)
